Reference: patent US20250316381A1, “Assessment of Relative Quantitative Effect of Somatic Point Mutations at the Individual Tumor Level for Prioritization” (Hadasit Medical Research Services and Development Ltd., priority 2022, published 2025)

How the values were obtained:
human cancer cell lines [1] = assay: GDSC2 IC50 drug screening of cancer cell lines, divided by cancer gene TVA sub-groups; assay type: cell-based; conditions: except for two cell lines in "Strong Drivers" group
Excerpt: Bulk data of “IC50s Drug Screening” was obtained from Genomics of Drug Sensitivity in Cancer website. Bulk mutation data for cell lines was obtained from Cell Model Passports website.
The analysis was focused on pairs of drugs and genetic alterations that met the following criteria in GDSC's database: (i) drug response associated with a cancer gene variant (ii) at least 50 cell lines harboring the cancer gene alteration (iii) effect size above 0.7 (above 0.5 indicates a moderate effect size and above 1 indicates a large effect size) (iv) drug-gene association is statistically significant (false discovery rate (FDR) p-value<0.1) and (v) the drug effect on the mutated protein of associated pathways can explain the association.
For comparison of response to drugs between genes variants' TVA values, samples were binned according to their gene variant TVA score and according to appearance in the drivers' binomial catalogue. Non-drivers were defined as variants absent from the binomial catalogue with TVA≤1.5. This larger TVA value for variants not in the catalog enlarges the number of variants in the non-driver group. […]
Rare pathogenic variants are becoming important in the inter-individual variability in drug response. […] Genomic features and drug response associations were analyzed from GDCS's analysis of variance model that met certain criteria (see Materials and Methods). […]

human cancer cell lines [2] = conditions: GDSC2; BRAF variants, "Very Strong Drivers" group (includes V600E class I variant) versus all other groups; cited from earlier work

| SMILES | association of TVA's sub-groups of BRAF variants with drug response (human cancer cell lines [1]) | IC50 of cancer cell lines (human cancer cell lines [2]) |
| --- | --- | --- |
| CC(C)(C)c1nc(-c2cccc(NS(=O)(=O)c3c(F)cccc3F)c2F)c(-c2ccnc(N)n2)s1 [Dabrafenib] | associated with drug response |  |
| CCCS(=O)(=O)Nc1ccc(F)c(C(=O)c2c[nH]c3ncc(Cl)cc23)c1F [PLX4720] |  | distinct low IC50 |
